# Active and inactive are the calls of the source. The rule behind the calls is not given here.
# Key:
# Botrytis cinerea [1] = assay: Antifungal activity against Botryotinia fuckeliana infected in grape assessed as lesion diameter at 1 mg/ml applied by dipping 24 hr prior to infection measured after 4 days at 24 degC (reference value: 30.56 mm); type: functional
# Botrytis cinerea [2] = assay: Antifungal activity against Botryotinia fuckeliana infected grape assessed as decrease in lesion diameter at 3 mg/ml applied by dipping 24 hr prior to infection measured after 4 days at 4 degC relative to untreated-control; type: functional, organism-based
# Botrytis cinerea [3] = assay: Antifungal activity against Botryotinia fuckeliana assessed as mycelial growth at 3 mg/ml after 4 days (reference value: 85 mm); type: functional
# Botrytis cinerea [4] = assay: Antifungal activity against Botryotinia fuckeliana infected grape assessed as decrease in lesion diameter at 1 to 3 mg/ml applied by dipping 24 hr prior to infection measured after 5 to 7 days at 4 degC relative to untreated-control; type: functional, organism-based
# Botrytis cinerea [5] = assay: Antifungal activity against Botryotinia fuckeliana infected grape assessed as decrease in lesion diameter at 3 mg/ml applied by dipping 24 hr prior to infection measured after 3 days at 24 degC relative to untreated-control; type: functional, organism-based
# Botrytis cinerea [6] = assay: Growth inhibition of Botryotinia fuckeliana at 0.5 mg/ml after 4 days relative to control; type: functional; conditions: 96 h, read-out: GI
# Botrytis cinerea [7] = assay: Antifungal activity against Botryotinia fuckeliana assessed as mycelial growth at 2 mg/ml after 4 days (reference value: 85 mm); type: functional
# Botrytis cinerea [8] = assay: Antifungal activity against Botryotinia fuckeliana assessed as mycelial growth after 4 days; type: functional, organism-based; conditions: 96 h
# Botrytis cinerea [9] = assay: Growth inhibition of Botryotinia fuckeliana at 1 mg/ml after 4 days relative to control; type: functional; conditions: 96 h, read-out: GI
# Botrytis cinerea [10] = assay: Antifungal activity against Botryotinia fuckeliana infected grape assessed as lesion diameter at 3 mg/ml applied by dipping 24 hr prior to infection measured after 4 days at 24 degC (reference value: 30.56 mm); type: functional
# Botrytis cinerea [11] = assay: Antifungal activity against Botryotinia fuckeliana infected grape assessed as decrease in lesion diameter at 1 mg/ml applied by dipping 24 hr prior to infection measured after 4 days at 4 degC relative to untreated-control; type: functional, organism-based
# Botrytis cinerea [12] = assay: Growth inhibition of Botryotinia fuckeliana at 5 mg/ml after 4 days relative to control; type: functional; conditions: 96 h, read-out: GI
# Botrytis cinerea [13] = assay: Antifungal activity against Botryotinia fuckeliana infected grape assessed as decrease in lesion diameter at 3 mg/ml applied by dipping 24 hr prior to infection measured after 3 days at 4 degC relative to untreated-control; type: functional, organism-based
# Botrytis cinerea [14] = assay: Growth inhibition of Botryotinia fuckeliana at 4 mg/ml after 4 days relative to control; type: functional; conditions: 96 h, read-out: GI
structure (smiles),measurement,setting,value
CSC(=O)c1cccc2nnsc12 [ACIBENZOLAR-S-METHYL],Activity,Botrytis cinerea [1],17.94 mm
same,Activity,Botrytis cinerea [2],Active
same,Activity,Botrytis cinerea [3],44.72 mm
same,Activity,Botrytis cinerea [4],Active
same,Activity,Botrytis cinerea [5],Active
same,inhibition of growth at 500 µg/mL,Botrytis cinerea [6],16.3%
same,Activity,Botrytis cinerea [7],54.26 mm
same,EC50,Botrytis cinerea [8],3440 µg/mL
same,inhibition of growth at 1000 µg/mL,Botrytis cinerea [9],23.1%
same,Activity,Botrytis cinerea [10],16.99 mm
same,Activity,Botrytis cinerea [11],Active
same,inhibition of growth at 5000 µg/mL,Botrytis cinerea [12],66.2%
same,Activity,Botrytis cinerea [13],Active
same,inhibition of growth at 4000 µg/mL,Botrytis cinerea [14],55.6%

# From ChEMBL document CHEMBL3045978, “Sensitivity of Botrytis cinerea to chitosan and acibenzolar-S-methyl” (Pest Manag Sci, 2010)
